Laboratory results as given in patent US10836759B2, “Thiazole derivatives useful as mutant IDH1 inhibitors for treating cancer” (THE UNITED STATES OF AMERICA, AS REPRESENTED BY THE …, priority 2016, dated 2020).

Tests used:
IDH1 R132C = IDH1 R132C (Homo sapiens, UniProt O75874, R132C); assay: Enzymatic inhibition assay, mutant IDH1 R132C (NADPH depletion coupled to diaphorase/resazurin); assay type: biochemical; conditions: IDH1 R132C enzyme, IC50 class
Procedure: (§1) Assays were conducted in a 1536-well black solid-bottom plate with a final assay volume of 9 μL.
For IDH1 R132C, 3 μL of enzyme (0.00032 mg/mL IDH1 R132H, 10% glycerol, 50 mM potassium phosphate pH 6.5, 5 mM MgCl2, 0.03% BSA) were added to the plate, followed by the addition of 23 nL of test compound in DMSO. The plate was lidded and incubated at room temperature for 30 minutes at which time 3 μL of substrate were added (0.012 mM NADPH, 0.6 mM α-KG, 10% glycerol, 50 mM potassium phosphate pH 6.5, 5 mM MgCl2, 0.03% BSA). […]

IDH1 R132H = IDH1 R132H (Homo sapiens, UniProt O75874, R132H); assay: Enzymatic inhibition assay, mutant IDH1 R132H (NADPH depletion coupled to diaphorase/resazurin); assay type: biochemical; conditions: IDH1 R132H enzyme, IC50 class
Procedure: as §1
Specifically, for IDH1 R132H, 3 μL of enzyme (4 mM β-ME, 0.0005 mg/mL IDH1 R132H, 150 mM NaCl, 20 mM Tris pH 7.5, 10 mM MgCl2, 0.05% BSA) were added to the plate, followed by the addition of 23 nL of test compound in DMSO. The plate was lidded and incubated at room temperature for 30 minutes at which time 3 μL of substrate were added (0.016 mM NADPH, 2 mM α-KG, 150 mM NaCl, 20 mM Tris pH 7.5, 10 mM MgCl2, 0.05% BSA). This reaction was incubated at room-temperature for 60 minutes at which time the detection mix was added (0.06 mg/mL diaphorase, 0.036 mM resazurin, 150 mM NaCl, 20 mM Tris pH 7.5, 10 mM MgCl2, 0.05% BSA). […]

Sequence of IDH1 R132H (O75874 whole entry R132H): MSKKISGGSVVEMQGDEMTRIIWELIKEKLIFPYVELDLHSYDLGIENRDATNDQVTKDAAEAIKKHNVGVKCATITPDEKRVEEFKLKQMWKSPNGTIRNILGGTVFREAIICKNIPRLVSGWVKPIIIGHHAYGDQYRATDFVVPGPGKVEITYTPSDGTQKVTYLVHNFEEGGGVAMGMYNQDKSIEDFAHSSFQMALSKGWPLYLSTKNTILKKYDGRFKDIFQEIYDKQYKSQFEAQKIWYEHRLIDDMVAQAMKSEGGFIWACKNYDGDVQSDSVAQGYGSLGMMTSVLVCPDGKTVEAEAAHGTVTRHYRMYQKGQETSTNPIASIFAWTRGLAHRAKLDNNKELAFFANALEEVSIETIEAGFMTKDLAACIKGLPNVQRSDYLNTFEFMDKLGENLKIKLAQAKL
Sequence of IDH1 R132C (O75874 whole entry R132C): as the sequence (O75874 whole entry R132H) above, with H132C counted along it

Compound | IC50 (IDH1 R132C) [µM] | IC50 (IDH1 R132H) [µM]
CCOc1ccc(N(CC)CC)cc1-n1c(C=C(C)C)c(C(=O)N2C[C@H]3CC[C@@H](C2)N3)cc(-c2nc(-c3ccc(Cl)cc3)cs2)c1=O [Compound 146] | 0.3 to 1 | < 0.3
CCc1ccc(Cl)cc1-n1c(C=C(C)C)c(C(=O)N2CC3CCC(C2)N3)cc(-c2nc(-c3ccc(Cl)cc3)cs2)c1=O [Compound 133] | < 0.3 | < 0.3
CCc1cccc(CC)c1-n1c(C=C(C)C)c(C(=O)N2CCNC[C@@H]2C)cc(-c2nc(-c3ccc(C(F)F)cc3)cs2)c1=O [Compound 132] | < 0.3 | < 0.3
CCOc1ccc(Cl)cc1-n1c(C=C(C)C)c(C(=O)N2CC3CCC(C2)N3)cc(-c2nc(-c3ccc(C(F)(F)F)cc3)cs2)c1=O [Compound 115] | < 0.3 | < 0.3
CCOc1ccc(Cl)c(-n2c(C=C(C)C)c(C(=O)N3C[C@H]4CC[C@@H](C3)N4)cc(-c3nc(-c4ccc(C(F)F)cc4)cs3)c2=O)c1 [Compound 130] | < 0.3 | < 0.3
CC(C)=Cc1c(C(=O)N2CCNCC2)cc(-c2nc(-c3ccc(Cl)cc3)cs2)c(=O)n1-c1cc(N(C)C)ccc1Cl [Compound 147] | < 0.3 | < 0.3
CCc1ccc(OC)cc1-n1c(C=C(C)C)c(C(=O)N2C[C@H]3CC[C@@H](C2)N3)cc(-c2nc(-c3ccc(Cl)cc3)cs2)c1=O (single isomer, unassigned) [Compound 114-1] | < 0.3 | < 0.3
CNc1ccc(Cl)c(-n2c(C=C(C)C)c(C(=O)N3C[C@H]4CC[C@@H](C3)N4)cc(-c3nc(-c4ccc(Cl)cc4)cs3)c2=O)c1 [Compound 149] | < 0.3 | < 0.3
CCOc1ccc(Cl)cc1-n1c(C=C(C)C)c(C(=O)N2CCN[C@H](C)C2)cc(-c2nc(-c3ccc(C(F)(F)F)cc3)cs2)c1=O [Compound 110] | < 0.3 | < 0.3
CCOc1ccc(Cl)c(-n2c(C=C(C)C)c(C(=O)N3CCNCC3)cc(-c3nc(-c4ccc(OC)nc4)cs3)c2=O)c1 [Compound 137] | < 0.3 | < 0.3
CCOc1ccc(Cl)cc1-n1c(C=C(C)C)c(C(=O)N2CC3CCC(C2)N3)cc(-c2nc(-c3ccc(Cl)cc3)cs2)c1=O [Compound 113] | < 0.3 | < 0.3
CCOc1ccc(N(CC)CC)cc1-n1c(C=C(C)C)c(C(=O)N2CCNCC2)cc(-c2nc(-c3ccc(Cl)cc3)cs2)c1=O [Compound 145] | < 0.3 | < 0.3
CCOc1ccc(C#N)cc1-n1c(C=C(C)C)c(C(=O)N2CC3CCC(C2)N3)cc(-c2nc(-c3ccc(Cl)cc3)cs2)c1=O [Compound 135] | < 0.3 | < 0.3
CCc1cccc(CC)c1-n1c(C=C(C)C)c(C(=O)N2CCNC[C@@H]2C)cc(-c2nc(-c3ccc(Cl)cc3)cs2)c1=O [Compound 124] | < 0.3 | < 0.3
CCc1cccc(CC)c1-n1c(C=C(C)C)c(C(=O)N2CCNC[C@H]2C)cc(-c2nc(-c3ccc(Cl)cc3)cs2)c1=O [Compound 123] | < 0.3 | < 0.3
CNc1ccc(Cl)c(-n2c(C=C(C)C)c(C(=O)N3CCNCC3)cc(-c3nc(-c4ccc(Cl)cc4)cs3)c2=O)c1 [Compound 148] | < 0.3 | < 0.3

Compound | IC50 (IDH1 R132C) [µM] | IC50 (IDH1 R132H) [µM]
CCc1ccc(OC)cc1-n1c(C=C(C)C)c(C(=O)N2CC3CCC(C2)N3)cc(-c2nc(-c3ccc(Cl)cc3)cs2)c1=O [Compound 114] | < 0.3 | < 0.3
CCc1ccc(Cl)cc1-n1c(C=C(C)C)c(C(=O)N2CCNCC2)cc(-c2nc(-c3ccc(C(F)(F)F)nc3)cs2)c1=O [Compound 122] | 1 to 5 | 0.3 to 1
CCc1ccc(Cl)cc1-n1c(CC(C)C)c(C(=O)N2CCNCC2)cc(-c2nc(-c3ccc(C(F)F)cc3)cs2)c1=O [Compound 118] | 0.3 to 1 | 0.3 to 1
CCc1cccc(CC)c1-n1c(C=C(C)C)c(C(=O)N2CCN[C@H](C)C2)cc(-c2nc(-c3ccc(C(F)F)cc3)cs2)c1=O [Compound 111] | < 0.3 | < 0.3
CCc1cccc(CC)c1-n1c(C=C(C)C)c(C(=O)N2CCN[C@H](C)C2)cc(-c2nc(-c3ccc(Cl)cc3)cs2)c1=O [Compound 112] | < 0.3 | < 0.3
CCOc1ccc(Cl)c(-n2c(C=C(C)C)c(C(=O)N3CCNCC3)cc(-c3nc(-c4ccc(C(F)(F)F)cc4)cs3)c2=O)c1 [Compound 105] | < 0.3 | < 0.3
CCc1cccc(CC)c1-n1c(C=C(C)C)c(C(=O)N2CCN[C@@H](C)C2)cc(-c2nc(-c3ccc(Cl)cc3)cs2)c1=O [Compound 109] | < 0.3 | < 0.3
CCc1ccc(OC)cc1-n1c(C=C(C)C)c(C(=O)N2C[C@H]3CC[C@@H](C2)N3)cc(-c2nc(-c3ccc(Cl)cc3)cs2)c1=O (single isomer, unassigned) [Compound 114-2] | 0.3 to 1 | 0.3 to 1
CCOc1ccc(Cl)c(-n2c(C=C(C)C)c(C(=O)N3C[C@H]4CC[C@@H](C3)N4)cc(-c3nc(-c4ccc(C(F)(F)F)cc4)cs3)c2=O)c1 [Compound 127] | < 0.3 | < 0.3
CCOc1ccc(Cl)cc1-n1c(C=C(C)C)c(C(=O)N2CC3CCC(C2)N3)cc(-c2nc(-c3ccc(Cl)cc3)cs2)c1=O (single isomer, unassigned) [Compound 113-1] | < 0.3 | < 0.3
CCOc1ccc(Cl)cc1-n1c(C=C(C)C)c(C(=O)N2CCNC[C@H]2C)cc(-c2nc(-c3ccc(C(F)(F)F)cc3)cs2)c1=O [Compound 129] | < 0.3 | < 0.3
CCc1ccc(OC)cc1-n1c(C=C(C)C)c(C(=O)N2CCNCC2)cc(-c2nc(-c3ccc(C(F)(F)F)nc3)cs2)c1=O [Compound 103] | < 0.3 | < 0.3
CCc1cccc(CC)c1-n1c(C=C(C)C)c(C(=O)N2CC3CCC(C2)N3)cc(-c2nc(-c3ccc(C(F)F)cc3)cs2)c1=O [Compound 116] | < 0.3 | < 0.3
CCOc1ccc(Cl)cc1-n1c(C=C(C)C)c(C(=O)N2CCN[C@@H](C)C2)cc(-c2nc(-c3ccc(C(F)(F)F)cc3)cs2)c1=O [Compound 107] | < 0.3 | < 0.3
CCc1ccc(OC)cc1-n1c(C=C(C)C)c(C(=O)N2CCNCC2)cc(-c2nc(-c3ccc(C(F)F)cc3)cs2)c1=O [Compound 104] | < 0.3 | < 0.3
CCc1cccc(CC)c1-n1c(C=C(C)C)c(C(=O)N2CCNC[C@H]2C)cc(-c2nc(-c3ccc(C(F)F)cc3)cs2)c1=O [Compound 131] | < 0.3 | < 0.3

Other lines, results leading:

IC50 (IDH1 R132C) [µM] | IC50 (IDH1 R132H) [µM] | Compound
< 0.3 | 0.3 to 1 | CCc1ccc(Cl)cc1-n1c(C=C(C)C)c(C(=O)N2CC3CCC(C2)N3)cc(-c2nc(-c3ccc(Cl)cc3)cs2)c1=O (single isomer, unassigned) [Compound 133-1]
0.3 to 1 | – | CCOc1ccc(Cl)cc1-n1c(C=C(C)C)c(C(=O)N2CCNCC2)cc(-c2nc(-c3ccc(Cl)cc3)cs2)c1=O (single isomer, unassigned) [Compound 143-1]
< 0.3 | < 0.3 | CCOc1ccc(Cl)c(-n2c(C=C(C)C)c(C(=O)N3CCNCC3)cc(-c3nc(-c4ccc(Cl)cc4)cs3)c2=O)c1 (single isomer, unassigned) [Compound 139-1]
0.3 to 1 | < 0.3 | CCc1ccc(Cl)cc1-n1c(C=C(C)C)c(C(=O)N2CCNCC2)cc(-c2nc(-c3ccc(Cl)cc3)cs2)c1=O (single isomer, unassigned) [Compound 144-2]
< 0.3 | < 0.3 | CCc1ccc(Cl)cc1-n1c(C=C(C)C)c(C(=O)N2CCNCC2)cc(-c2nc(-c3ccc(Cl)cc3)cs2)c1=O (single isomer, unassigned) [Compound 144-1]
0.3 to 1 | – | CCc1ccc(OC)cc1-n1c(C=C(C)C)c(C(=O)N2CCNCC2)cc(-c2nc(-c3ccc(Cl)cc3)cs2)c1=O (single isomer, unassigned) [Compound 151-2]
< 0.3 | < 0.3 | CCOc1ccc(Cl)c(-n2c(C=C(C)C)c(C(=O)N3CC4CCC(C3)N4)cc(-c3nc(-c4ccc(Cl)cc4)cs3)c2=O)c1 (single isomer, unassigned) [Compound 126-1]
1 to 5 | 1 to 5 | CCOc1ccc(Cl)c(-n2c(C=C(C)C)c(C(=O)N3CC4CCC(C3)N4)cc(-c3nc(-c4ccc(Cl)cc4)cs3)c2=O)c1 (single isomer, unassigned) [Compound 126-2]
< 0.3 | < 0.3 | CCOc1ccc(Cl)cc1-n1c(C=C(C)C)c(C(=O)N2CC3CCC(C2)N3)cc(-c2nc(-c3ccc(C#N)cc3)cs2)c1=O (single isomer, unassigned) [Compound 141-1]
0.3 to 1 | 1 to 5 | CCc1ccc(Cl)cc1-n1c(C=C(C)C)c(C(=O)N2CC3CCC(C2)N3)cc(-c2nc(-c3ccc(Cl)cc3)cs2)c1=O (single isomer, unassigned) [Compound 133-2]
0.3 to 1 | < 0.3 | CCOc1ccc(Cl)cc1-n1c(C=C(C)C)c(C(=O)N2CCNCC2)cc(-c2nc(-c3ccc(C#N)cc3)cs2)c1=O (single isomer, unassigned) [Compound 140-2]
